# Columns and labels:
# [1] = test system: sheep model of lung disease, bleomycin-induced lung damage; experiment: Example 1: bleomycin sheep pulmonary model, lung function, inflammation and fibrosis (3 sheep); assay type: in vivo
# Source text: In animal models, bleomycin is the most widely used agent to characterise pulmonary fibrosis. In the sheep model, intratracheal administrations of two doses of bleomycin is used to induce fibrosis in the lung parenchyma. The overall study protocol is shown at FIG. 1.
# For this example, three female merino sheep aged between 9 months and 1 year were utilised. Animals were housed indoors and received anthelminthic to treat for any existing parasitic disease. The sheep were judged to be free from significant pulmonary disease on the basis of clinical examination before the commencement of experiments and on inspection of gross pathology at autopsy. The Animal Experimentation Ethics Committee of the University of Melbourne, which adheres to the Australian Code of Practice for the care and use of laboratory animals for scientific purposes, approved all experimental procedures outlined below.
# Bleomycin sulphate was made up at a concentration of 0.6 U bleomycin/mL saline and administered to the left and right caudal lobes at a rate of 3 U per segment to cause injury to the tissue and trigger fibrosis. For the left caudal lobe, 7 mg of pinocembrin in 10% DMSO was administered to test the efficacy of pinocembrin in the treatment or prevention of bleomycin-induced fibrosis. For the right caudal lobe injury was induced by bleomycin, and DMSO alone administered such that any differential effects between the left and right caudal lobes could be attributed to the pinocembrin.
# A saline solution was administered to the right medial lobe, as a sham treatment.
# Each of the bleomycin, bleomycin/pinocembrin, and saline compositions was administered via the biopsy port of a fibre-optic bronchoscope to the appropriate lung segments as a 5 ml bolus.
# Timing of the administration of the various compositions is summarised at FIG. 1, with all three sheep euthanized at week 12.
# The sheep were euthanized by an intravenous overdose of barbiturate (Lethabarb, Veterinary Clinic, University of Melbourne, Werribee, Australia) at week 12 as outlined in FIG. 1 for tissue collection and analysis.
# Following euthanasia, the lungs were removed and targeted lung segments identified and carefully dissected free from surrounding tissue. Individual segments were then inflated with a 1:1 mixture of OCT and sterile PBS solution. […]
# Segmental compliance (Cseg) was assessed using pressure responses to flow in the different segments as indicated FIG. 2 in awake, consciously breathing sheep using a wedged-bronchoscope technique. […]
# Segmental lung compliance was calculated. […] Segmental compliance was then calculated from the pressure-flow decay curve generated from this procedure. The process was repeated 3 times for each segment and expressed as an average value for Cseg. […]
# [2] = soxhlet extraction of dry leaves with n-hexane or methanol; cited from earlier work
# [3] = test system: sheep model for pulmonary fibrosis, bleomycin-injured lung segments; experiment: Example 2: segmental lung compliance (Cseg) in bleomycin-injured sheep lung segments; assay type: in vivo
# Procedure: Segmental compliance (Cseg) was assessed using pressure responses to flow in the different segments as indicated FIG. 2 in awake, consciously breathing sheep using a wedged-bronchoscope technique. Briefly, a custom-built Segmental Lung Airway Monitoring (SLAM) System was used to monitor the segmental flow and pressure. After first determining the bronchoscope resistance to the set flow, the bronchoscope was wedged into an airway in the lung segment of interest and a constant flow (6 mL/s) of 5% C02 in air was passed through the working channel of the bronchoscope.
# Segmental lung compliance was calculated. Briefly, after the bronchoscope was wedged into the specific region of the lung, pressure was allowed to reach a steady state. After approximately 5 s at steady state, airflow was interrupted turning off the airflow supply. Segmental compliance was then calculated from the pressure-flow decay curve generated from this procedure. The process was repeated 3 times for each segment and expressed as an average value for Cseg. The pressure was recorded by a PM-1000 Transducer Amplifiers (CWE Inc., Admore, USA) and flow was recorded using a mass flow meter (824-S, Sierra Instruments, Monterey, USA). Data were acquired with Data Acquisition Card (PCI-6233; National Instruments Corp., Austin, USA) and was analysed with the SLAM system (Latitude E6520, Dell Computer Corporation, Texas USA and LabVIEW, National Instruments Corp., Austin, USA). All resistance measurements were corrected for the resistance of flow through the working channel of the bronchoscope.
# In this study, a total of 10 sheep were used. Fibrosis in two lung segments of each sheep in a similar manner as performed in Example 1 herein. Using this procedure (as detailed further below) the fibrosis was confined to small, isolated regions in the lungs leaving the remaining 90-95% of the healthy unaffected lungs to undertake normal respiratory function.
# All sheep (n=10) in the study were challenged with 2 single doses of bleomycin (3 units) per lung segment, a fortnight apart and the animals were kept for a little over 5 weeks after the final bleomycin dose. Bleomycin is a well-known agent for inducing fibrosis in the lungs. The administration procedure involves inserting a bronchoscope into lung segments in the right and left lung, and then slowly infusing the bleomycin into two segments as shown in FIG. 2 via the bronchoscope biopsy port. […]
# Lung function was assessed in all test lung-segments (left and right caudal lobes, and medial lobe in each sheep). The functional capacity of the lung segments was measured through the endoscope using the procedure outlined in Example 1 herein. The lung function parameter assessed in this study is referred to as compliance in the lung segment (abbreviated to Cseg). […]
# [4] = 7 mg pinocembrin in 10% DMSO, 4 weekly doses, left vs right caudal segment
structure (smiles),measurement,setting,value
"O=C1CC(c2ccccc2)Oc2cc(O)cc(O)c21 (stereo not drawn) [pinocembrin, 5,7-Dihydroxy-2-Phenyl-2,3-Dihydro-4H-Chromen-4-One]","beneficial effect of pinocembrin (significance, number of sheep)",[1],statistically significant and noted in all three sheep
same,lung function,"[1]; 7 mg pinocembrin in 10% DMSO, 4 weekly doses, bleomycin-injured left caudal segment vs right caudal segment (bleomycin + DMSO)",improvement
same,fibrosis,[1]; [4],decrease
same,inflammation,[1]; [4],decrease
same,temperature survived for extended periods,[2],up to 68 °C
same,lung function in lung segments injured by bleomycin (summary),"[3]; 4 weekly doses of 7 mg, n=10 sheep",significantly improved
same,"sheep with improved function (Cseg) in bleomycin-damaged, pinocembrin-treated lung segments","[3]; individual sheep data, 4 weekly infusions of 7 mg, 10 sheep",eight out of ten
same,percentage change in compliance from baseline,"[3]; week 0 to week 11, after four weekly administrations, n=10 sheep",significantly improved
same,mean segmental compliance (Cseg) compared with untreated healthy control lung segments,"[3]; week 11, 7 mg in 10% DMSO infused into bleomycin-injured caudal segment, 4 weekly doses, n=10 sheep",not significantly different from the untreated healthy control lung segments
